Molecules are shown by their SMILES. Active and inactive are the calls of the source. No cut-off for these calls is given here.

For data set [1], the system named is A549. As to the kind of experiment: Cytotoxicity against human A549 cells assessed as cell growth inhibition measured after 24 hrs by MTT assay. The format is functional. Background: Tetrazolium assays rely on reduction of a dye to a coloured formazan, in cell work by metabolically active cells.
The test system of the next data set is Huh-7. Briefly: Cytotoxicity against human Huh-7 cells assessed as cell growth inhibition measured after 24 hrs by MTT assay. The class given is functional.
In data set [2] the test system is Zika virus. As to the kind of experiment: Antiviral activity against ZIKV MR766 infected in human SNB-19 cells assessed as reduction in viral induced cytopathic effect by measuring reduction in PFU measured after 4 days by neutral red staining based plaque assay. The format is functional, organism-based. The conditions noted are these: MR766, SNB-19, 96 h; for EC90: time 4 day. On the technique in general: Cytopathic effects are the visible damage that an infection or toxin causes in cultured cells.

Data set [3] relates to Zika virus. As to the kind of experiment: Antiviral activity against ZIKV ZG-01 infected in African green monkey Vero cells assessed as reduction in viral induced cytopathic effect by measuring reduction in PFU measured after 4 days by neutral red staining based plaque assay. The class given is functional, organism-based. The conditions noted are these: ZG-01, Vero, 96 h; for EC90: time 4 day.

In data set [4] the test system is A549. As to the kind of experiment: Downregulation of ZIKV E protein cleaved caspase 3 expression in human A549 cells at 5 to 25 uM by immunofluorescence analysis. The format is functional, cell-based. Conditions: dose 5-25 µM.
The subject of data set [5] is Zika virus. As to the kind of experiment: Antiviral activity against ZIKV ZG-01 infected in human Huh-7 cells assessed as reduction in viral induced cytopathic effect by measuring reduction in PFU measured after 4 days by neutral red staining based plaque assay. The class given is functional, organism-based. The conditions noted are these: ZG-01, Huh-7, 96 h; for EC90: time 4 day.

Data set [6] has as its system Zika virus. Briefly: Antiviral activity against ZIKV ZG-01 infected in human A549 cells assessed as reduction in viral induced cytopathic effect by measuring reduction in PFU measured after 4 days by neutral red staining based plaque assay. The class given is functional, organism-based. Conditions: ZG-01, A549, 96 h; for EC90: time 4 day.
Data set [7] relates to Vero. Briefly: Downregulation of ZIKV E protein cleaved caspase 3 expression in African green monkey Vero cells at 10 to 50 uM measured after 48 hrs by Western blotting analysis. The class given is functional, cell-based. The conditions noted are these: Chlorocebus sabaeus, dose 10-50 µM. In general terms: Immunoblotting shows a protein as a band on a membrane.
In data set [8] the test system is Zika virus. Briefly: Antiviral activity against ZIKV MR766 infected in African green monkey Vero cells assessed as reduction in viral induced cytopathic effect by measuring reduction in PFU measured after 4 days by neutral red staining based plaque assay. The format is functional, organism-based. Conditions: 96 h; for EC90: time 4 day.
Data set [9] relates to Zika virus. Briefly: Antiviral activity against ZIKV MR766 infected in human Huh-7 cells assessed as reduction in viral induced cytopathic effect by measuring reduction in PFU measured after 4 days by neutral red staining based plaque assay. The format is functional, organism-based. Conditions: MR766, Huh-7, 96 h; for EC90: time 4 day.
Data set [10] deals with Zika virus. As to the kind of experiment: Antiviral activity against ZIKV ZG-01 infected in human SNB-19 cells assessed as reduction in viral induced cytopathic effect by measuring reduction in PFU measured after 4 days by neutral red staining based plaque assay. The class given is functional, organism-based. Conditions: ZG-01, SNB-19, 96 h; for EC90: time 4 day.
In data set [11] the test system is Zika virus. As to the kind of experiment: Antiviral activity against ZIKV MR766 infected in human A549 cells assessed as reduction in viral induced cytopathic effect by measuring reduction in PFU measured after 4 days by neutral red staining based plaque assay. The class given is functional, organism-based. Conditions: MR766, A549, 96 h; for EC90: time 4 day.

Data set [12] is described as follows: Cytotoxicity against African green monkey Vero cells assessed as cell growth inhibition measured after 24 hrs by MTT assay. The class given is toxicity, cell-based. Conditions: chlorocebus sabaeus.
The next data set deals with SNB-19. Briefly: Cytotoxicity against human SNB-19 cells assessed as cell growth inhibition measured after 24 hrs by MTT assay. The class given is functional.
Data set [13] has as its system A549. Briefly: Downregulation of ZIKV E protein cleaved caspase 3 expression in human A549 cells at 10 to 50 uM measured after 48 hrs by Western blotting analysis. The conditions noted are these: dose 10-50 µM. The format is functional, cell-based.
Data set [14] deals with A549. Briefly: Downregulation of ZIKV E protein cleaved caspase 3 expression in human A549 cells at 5 to 25 uM measured after 48 hrs by Western blotting analysis. Conditions: dose 5-25 µM. The format is functional, cell-based.
In data set [15] the test system is Vero. Briefly: Downregulation of ZIKV E protein cleaved caspase 3 expression in African green monkey Vero cells at 5 to 25 uM measured after 48 hrs by Western blotting analysis. The format is functional, cell-based. The conditions noted are these: Chlorocebus sabaeus, dose 5-25 µM.
The next data set concerns the target NS5 (Zika virus, UniProt A0A143MHK7). As to the kind of experiment: Binding affinity to N-terminal His-tagged recombinant ZIKV ZG-01 RdRp (272 to 903 residues) expressed in Escherichia coli rosetta by surface plasmon resonance assay.
Data set [16] concerns A549. Briefly: Downregulation of ZIKV E protein cleaved caspase 3 expression in human A549 cells at 2.5 to 25 uM by immunofluorescence analysis. The format is functional, cell-based. Conditions: dose 2.5-25 µM.
Data set [17] deals with A549. Briefly: Induction of mitochondrial membrane potential loss in human A549 cells at 50 to 100 uM by JC-1 staining based fluorescence microscope. The format is functional, cell-based. Conditions: dose 50-100 µM.

Chain of NS5 (A0A143MHK7 whole entry, the tested form may be a part): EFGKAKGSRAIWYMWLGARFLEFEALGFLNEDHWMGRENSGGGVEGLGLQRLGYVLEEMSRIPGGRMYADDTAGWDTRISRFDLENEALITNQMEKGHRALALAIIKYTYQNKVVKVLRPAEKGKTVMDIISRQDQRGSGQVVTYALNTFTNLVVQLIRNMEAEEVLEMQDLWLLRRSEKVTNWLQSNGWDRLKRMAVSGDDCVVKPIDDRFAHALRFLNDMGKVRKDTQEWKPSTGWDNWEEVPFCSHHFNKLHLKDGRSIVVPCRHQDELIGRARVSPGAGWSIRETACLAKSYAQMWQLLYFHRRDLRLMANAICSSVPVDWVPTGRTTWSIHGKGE

`NC(=O)c1ncn([C@@H]2O[C@H](CO)[C@@H](O)[C@H]2O)n1` [RIBAVIRIN]: the values for the cytotoxic concentration (CC50) in the data set on A549 [1], with Huh-7 and with SNB-19 were over 50 µM, 513 µM and 485 µM, respectively. In addition, the EC50 is over 80 µM with Zika virus [2]; over 80 µM in the data set on Zika virus [3]; 14.1 µM in the data set with Zika virus [5]; 36.1 µM in the data set on Zika virus [6]; over 80 µM with Zika virus [8]; 17.7 µM in the data set on Zika virus [9]. For the same compound, the results for the EC50 with Zika virus [10] and in the data set with Zika virus [11] were over 80 µM and 38.1 µM, respectively. In addition, the EC90 in the data set with Zika virus [2] was over 80 µM; in the data set with Zika virus [3] it was over 80 µM; with Zika virus [5], 47.4 µM; in the data set on Zika virus [6], 70.3 µM; in the data set with Zika virus [8], over 80 µM; in the data set on Zika virus [9] it was 51 µM. The EC90 was over 80 µM with Zika virus [10] and 75.9 µM in the data set with Zika virus [11]. Besides, the result in the data set on A549 [4], in the data set with Vero [7] and in the data set on A549 [13] was inactive. For the same compound, the CC50 at 24 h in [12] stood at 470 µM.

In the case of `Cc1ncnc2c1c(C#Cc1ccc(Br)c(F)c1)cn2[C@@H]1O[C@H](CO)[C@@H](O)[C@@]1(C)F`, the outcome with A549 [14], with Vero [15] and in the data set with A549 [16] was Active. Moreover, the figures for the CC50 with A549 [1], with Huh-7 and in the data set on SNB-19 were over 50 µM, 43.8 µM and 49.4 µM, respectively. Further, the EC50 in the data set on Zika virus [2] was found to be 8.9 µM; in the data set with Zika virus [3] it was 3.1 µM; in the data set with Zika virus [5] it was 5.7 µM; with Zika virus [6], 2.8 µM; in the data set with Zika virus [8] it was 7.7 µM; with Zika virus [9], 6.1 µM. The EC50 in the data set on Zika virus [10] and in the data set on Zika virus [11] was 6.4 µM throughout. For the same compound, the EC90 in the data set on Zika virus [2] came to 19.8 µM; in the data set with Zika virus [3], 7.1 µM; in the data set on Zika virus [5], 16.4 µM; with Zika virus [6], 6.8 µM; with Zika virus [8], 18.6 µM; in the data set with Zika virus [9], 14.6 µM. Also, the EC90 with Zika virus [10] turned out to be 16.6 µM; with Zika virus [11], 18 µM. Besides, the Kd at NS5 is 1870 nM. Further, in data set [12], the CC50 at 24 h was 46.8 µM. For the same compound, the result in the data set with A549 [17] was inactive.

The CC50 is the concentration that lowers cell viability or growth by half. One may read the EC50 as the concentration needed to bring the measured effect to its halfway point. The term EC90 denotes the point of the concentration-response curve where the effect stands at 90%. One may read the Kd as a measure of binding affinity in units of concentration.

For the origin of these results see ChEMBL document CHEMBL5236565, “Design, synthesis, and biological evaluation of novel 2'-methyl-2'-fluoro-6-methyl-7-alkynyl-7-deazapurine nucleoside analogs as anti-Zika virus agents” (Eur J Med Chem, 2022).
